One data set has as its target 5-HT1D receptor (Homo sapiens, UniProt P28221). The following applies: ref Supplementary Table 3; cited from earlier work.
A further data set deals with μ Opioid receptor (Homo sapiens, UniProt P35372). Briefly: biochemical. The data set is classed as binding.
The subject of another data set is carbonic anhydrase II. The following applies: ref WOMBAT (26); cited from earlier work.
The target of another data set is T1, α2A adrenergic receptor (Homo sapiens, UniProt P08913).
T1 sequence (P08913 1-465): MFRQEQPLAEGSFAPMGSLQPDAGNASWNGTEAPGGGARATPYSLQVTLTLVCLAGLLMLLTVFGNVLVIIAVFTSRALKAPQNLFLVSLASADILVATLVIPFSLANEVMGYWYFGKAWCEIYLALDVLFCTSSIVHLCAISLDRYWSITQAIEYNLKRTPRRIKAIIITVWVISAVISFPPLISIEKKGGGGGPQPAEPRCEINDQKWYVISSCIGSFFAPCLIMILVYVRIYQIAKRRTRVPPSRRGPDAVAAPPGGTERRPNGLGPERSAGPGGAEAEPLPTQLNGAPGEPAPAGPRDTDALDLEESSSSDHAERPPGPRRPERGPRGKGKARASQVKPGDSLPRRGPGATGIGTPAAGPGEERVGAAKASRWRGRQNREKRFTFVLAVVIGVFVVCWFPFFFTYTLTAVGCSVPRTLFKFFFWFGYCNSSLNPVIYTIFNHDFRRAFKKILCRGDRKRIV
Briefly: Radioligand competition binding, α2A.

The next data set concerns hERG channel. The following applies: cited from earlier work.
For another data set, the target named is human 5-HT2A receptor (Homo sapiens, UniProt P28223). Put plainly: cell-based.
The next data set has as its target σ1 receptor. The following applies: read-out: Kd for σ1; cited from earlier work.
A further data set deals with Histamine H4 receptor (Homo sapiens, UniProt Q9H3N8). Briefly: biochemical. The data set is classed as binding.
The conditions of data set [1]: average; cited from earlier work.
A further data set concerns adrenergic α2. The following applies: ref Supplementary Table 3; cited from earlier work.

Chain of human 5-HT2A receptor (P28223 whole entry): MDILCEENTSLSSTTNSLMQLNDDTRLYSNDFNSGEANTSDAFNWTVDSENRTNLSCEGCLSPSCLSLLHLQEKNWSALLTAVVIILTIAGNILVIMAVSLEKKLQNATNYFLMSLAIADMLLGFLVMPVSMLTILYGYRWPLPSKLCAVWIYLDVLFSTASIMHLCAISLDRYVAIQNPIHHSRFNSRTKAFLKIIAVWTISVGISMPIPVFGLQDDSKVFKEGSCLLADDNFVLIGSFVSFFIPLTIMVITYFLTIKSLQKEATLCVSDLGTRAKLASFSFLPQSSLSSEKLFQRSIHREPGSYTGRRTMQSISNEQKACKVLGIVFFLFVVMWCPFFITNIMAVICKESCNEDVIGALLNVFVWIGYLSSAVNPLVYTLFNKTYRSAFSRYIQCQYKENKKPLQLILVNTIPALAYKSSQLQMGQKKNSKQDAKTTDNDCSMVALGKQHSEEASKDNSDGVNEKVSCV
Chain of 5-HT1D receptor (P28221 whole entry): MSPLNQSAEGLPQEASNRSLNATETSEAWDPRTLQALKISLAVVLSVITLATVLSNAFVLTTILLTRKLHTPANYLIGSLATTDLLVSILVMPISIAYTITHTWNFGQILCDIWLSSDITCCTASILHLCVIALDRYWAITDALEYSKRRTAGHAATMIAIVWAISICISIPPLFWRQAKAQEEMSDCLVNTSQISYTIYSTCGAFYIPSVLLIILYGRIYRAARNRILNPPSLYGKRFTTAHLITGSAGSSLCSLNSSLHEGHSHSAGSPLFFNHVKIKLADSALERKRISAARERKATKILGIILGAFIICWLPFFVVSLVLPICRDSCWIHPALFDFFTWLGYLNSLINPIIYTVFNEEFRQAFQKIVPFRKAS
Chain of Histamine H4 receptor (Q9H3N8 whole entry, species assumed): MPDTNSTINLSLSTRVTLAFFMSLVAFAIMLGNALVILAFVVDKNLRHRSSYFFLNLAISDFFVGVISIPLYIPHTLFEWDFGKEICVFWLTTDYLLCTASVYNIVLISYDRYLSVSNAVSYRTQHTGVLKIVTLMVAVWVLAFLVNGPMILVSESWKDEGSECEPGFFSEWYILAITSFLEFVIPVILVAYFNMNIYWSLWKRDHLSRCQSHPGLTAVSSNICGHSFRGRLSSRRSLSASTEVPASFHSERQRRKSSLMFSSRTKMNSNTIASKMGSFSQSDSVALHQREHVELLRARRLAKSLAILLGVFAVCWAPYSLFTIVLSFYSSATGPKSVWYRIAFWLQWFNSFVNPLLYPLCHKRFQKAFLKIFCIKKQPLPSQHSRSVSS
Chain of μ Opioid receptor (P35372 whole entry, species assumed): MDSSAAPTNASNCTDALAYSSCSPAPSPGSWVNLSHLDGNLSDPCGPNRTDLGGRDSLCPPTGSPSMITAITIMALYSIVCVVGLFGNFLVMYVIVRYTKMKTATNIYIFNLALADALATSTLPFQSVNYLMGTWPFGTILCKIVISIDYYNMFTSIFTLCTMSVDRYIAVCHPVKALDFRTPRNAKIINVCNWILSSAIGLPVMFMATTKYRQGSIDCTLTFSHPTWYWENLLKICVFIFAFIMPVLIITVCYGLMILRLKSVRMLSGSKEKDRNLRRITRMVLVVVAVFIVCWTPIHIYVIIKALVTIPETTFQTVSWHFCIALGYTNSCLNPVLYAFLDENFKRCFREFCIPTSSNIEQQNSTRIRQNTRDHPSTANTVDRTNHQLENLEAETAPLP

As for `CCCN1C[C@H](CSC)C[C@@H]2c3cccc4[nH]cc(c34)C[C@H]21` [Permax, pergolide], the “reported to bind the 5-HT1D receptor at” value at 5-HT1D receptor is 13 nM.
By Ki is commonly meant a dissociation constant, usually derived from enzyme kinetics or from competition with a known ligand. Higher therefore signals a looser hold on the target. In turn, `CC(C(O)c1ccc(O)cc1)N1CCC(Cc2ccccc2)CC1` (stereo not shown) [Vadilex, Ifenprodil] had a Ki on μ Opioid receptor of 1.4 µM.
For the compound `CCN[C@H]1CN(CCCOC)S(=O)(=O)c2sc(S(N)(=O)=O)cc21` [Azopt, brinzolamide], the “binds carbonic anhydrase II at” value with carbonic anhydrase II is given as 3 nM.
`COc1cc2c(cc1OC)C1CC(=O)C(CC(C)C)CN1CC2` (stereo not shown) [Xenazine] showed a Ki on α2A adrenergic receptor of 0.96 µM.
Usually IC50 stands for the point on the concentration scale where inhibition reaches its midpoint. As to `O=c1[nH]c2ccccc2n1CCCN1CCC(n2c(=O)[nH]c3cc(Cl)ccc32)CC1` [Motilium], the IC50 with hERG channel was 5 µM.
As a reminder, the EC50 is the concentration at which the effect is half-maximal. A low value points to greater potency. One may read the Kd as the equilibrium constant for the complex coming apart. Take `CN(C)CCc1c[nH]c2ccccc12` [DMT, N,N-dimethyltryptamine]: the EC50 at human 5-HT2A receptor amounted to 0.118 ± 0.029 µM. The Kd at σ1 receptor is 14.8 µM.
At Histamine H4 receptor, `CC(C)Nc1cccnc1N1CCN(C(=O)c2cc3cc(NS(C)(=O)=O)ccc3[nH]2)CC1` [Rescriptor, Delavirdine] gave a Ki of 5.3 µM. Moreover, in [1], the “steady-state plasma concentration Cmin” value was 15 µM.
In the case of `CCN(CC)C(=O)N[C@H]1C=C2c3cccc4[nH]cc(c34)C[C@H]2N(C)C1` [Revanil, lisuride], in the data set on adrenergic α2, the “reported to bind adrenergic α2 at” value is 0.055 nM.
